Measured values published in patent US7687664B2, “Carboxylic acid derivative, a salt thereof or an ester of them, and medicament comprising it” (Eisai R&D Management Co., Ltd., priority 2001, dated 2010).

Assays:
Test in all cases: Transcriptional activity, GAL4-PPAR LBD chimera / PLAP reporter in CV-1 cells
Type in all cases: cell-based
human PPAR α = biological target: T1, human PPAR α (Homo sapiens, UniProt Q07869); conditions: GAL4-PPARα LBD, PLAP activity 24 hours after addition
T1 construct: human PPAR 167-468 (PPAR α); expressed in transfected cells; host or cells: CV-1 (ATCC CCL-70)
T1 sequence (Q07869 167-468): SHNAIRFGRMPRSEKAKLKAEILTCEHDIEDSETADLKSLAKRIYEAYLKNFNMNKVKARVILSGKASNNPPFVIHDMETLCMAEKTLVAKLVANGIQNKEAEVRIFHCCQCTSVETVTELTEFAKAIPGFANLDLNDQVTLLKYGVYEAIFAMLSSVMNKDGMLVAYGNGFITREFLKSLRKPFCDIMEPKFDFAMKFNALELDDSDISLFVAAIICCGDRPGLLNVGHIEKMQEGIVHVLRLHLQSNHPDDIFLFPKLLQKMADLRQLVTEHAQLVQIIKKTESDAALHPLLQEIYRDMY
Source text: (§1) A GAL4-PPAR LBD chimera expression vector was constructed by ligating human PPAR 167-468 (PPAR α), 138-440 (NUC-1) and 174-475 (PPARγ) amino acid regions (LBD: Ligand Binding Domain) to a yeast transcriptional factor GAL4 1-147 amino acid region. As the reporter gene, PLAP (Placental Alkaline Phosphatase) was used, and this was ligated downstream of a TK promoter containing a 5-copy GAL4 DNA binding element to construct a vector. As host cells, CV-1 (ATCC CCL-70) was used. That is, CV-1 cells were spread at a density of 5×10^5 cells on a 35-mm dish and cultured in 10% FCS/DMEM for 24 hours, and using FuGENE 6 transfection reagent, the cells were co-transfected with the GAL4-PPAR LBD expression vector and GAL4 DBD-TK-PLAP expression vector. 24 hours after this transfection, the cells were spread again on a 96-well plate at a density of 1×10^4/well and further cultured for 24 hours. After 24 hours, the medium was exchanged with DMEM containing 10% FCS, which was previously treated at 65° C. for inactivating intrinsic alkaline phosphatase, and a test compound was added at an arbitrary concentration. The transcriptional activity was determined in terms of PLAP activity secreted 24 hours after addition of the compound, to calculate EC50.
(§2) The PLAP activity was determined after adding 50 μl assay buffer and 50 μl chemoluminescence substrate to 10 μl culture supernatant and incubating the mixture at room temperature for 1 hour. In this way, transcription activities with respect to PPARα, PPARβ(δ) and PPARγ could be determined.

[1] = biological target: T2, human PPAR β (NUC-1, PPARβ(δ)) (Homo sapiens, UniProt Q03181); conditions: GAL4-PPARβ(δ) (NUC-1) LBD, PLAP activity 24 hours after addition
T2 construct: 138-440 (NUC-1); expressed in transfected cells; host or cells: CV-1 (ATCC CCL-70)
T2 sequence (Q03181 138-440): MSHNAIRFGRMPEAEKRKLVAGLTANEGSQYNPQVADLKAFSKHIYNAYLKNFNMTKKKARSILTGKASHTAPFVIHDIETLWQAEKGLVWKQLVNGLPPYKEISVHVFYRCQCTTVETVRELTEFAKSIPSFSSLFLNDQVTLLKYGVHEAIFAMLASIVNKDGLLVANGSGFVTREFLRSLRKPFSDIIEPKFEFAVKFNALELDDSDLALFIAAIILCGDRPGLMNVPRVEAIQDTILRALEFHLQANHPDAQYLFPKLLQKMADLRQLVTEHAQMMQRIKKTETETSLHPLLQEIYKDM
Source text: as §1, §2

human PPAR γ = biological target: T3, human PPAR γ (Homo sapiens, UniProt P37231); conditions: GAL4-PPARγ LBD, PLAP activity 24 hours after addition
T3 construct: 174-475 (PPARγ); expressed in transfected cells; host or cells: CV-1 (ATCC CCL-70)
T3 sequence (P37231 174-475 isoform P37231-2): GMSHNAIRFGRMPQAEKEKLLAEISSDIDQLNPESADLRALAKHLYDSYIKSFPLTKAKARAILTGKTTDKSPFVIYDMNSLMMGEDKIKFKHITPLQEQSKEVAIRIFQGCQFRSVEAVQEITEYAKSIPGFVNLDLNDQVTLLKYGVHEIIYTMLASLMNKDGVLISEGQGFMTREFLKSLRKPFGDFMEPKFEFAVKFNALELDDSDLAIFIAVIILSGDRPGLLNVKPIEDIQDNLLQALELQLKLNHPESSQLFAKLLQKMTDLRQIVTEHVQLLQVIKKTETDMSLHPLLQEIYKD
Source text: as §1, §2

EC50 (human PPAR α) [nM]	EC50 [1] [nM]	EC50 (human PPAR γ) [nM]	SMILES
1560	1140	150	COc1ccc(-c2cccc(CC(=O)O)c2)cc1OCC(O)COc1ccc(C(C)(C)C)cc1 (stereo not shown) [Ex 365, {3′-[2-Hydroxy-3-(4-t-butylphenoxy)propoxy]-4′-methoxybiphenyl-3-yl}acetic Acid]
–	–	31	CCCOc1ccc(C(=O)NCc2cc(-c3cccc(/C=C(\CC)C(=O)O)c3)ccc2OC)c(Cl)c1 [Example 141, (E)-2-Ethyl-3-[3-(3-{[(4-propoxy-2-chlorobenzoyl)amino]methyl}-4-methoxyphenyl)phenyl]-2-propenoic Acid]
29	–	–	Cc1ccc(-c2ccccc2CNC(=O)c2sc(-c3ccc(Cl)cc3)nc2C)cc1C(=O)O [Example 257, 3-(2-[([2-(4-Chlorophenyl)-4-methyl-1,3-thiazol-5-yl]carbonylamino)methyl]phenyl)-6-methylbenzoic Acid]
622	18	468	COc1ccc(-c2cccc(CC(=O)O)c2)cc1CCOC(=O)Nc1ccc(C(F)(F)F)cc1 [Example 267, 2-[5-(3-{2-[(4-Trifluoromethylanilinocarbonyl)oxy]ethyl}-4-methoxyphenyl)-3-phenyl]acetic Acid]

Continued, compound first:

SMILES	EC50 (human PPAR α) [nM]	EC50 [1] [nM]	EC50 (human PPAR γ) [nM]
COc1ccc(-c2cccc(CC(=O)O)c2)cc1OCC#Cc1cccc(C(F)(F)F)c1 [Ex 375, {3′-[3-(3-Trifluoromethylphenyl)-2-propynyloxy]-4′-methoxybiphenyl-3-yl}acetic Acid]	653	102	1280
COc1ccc(-c2ccc(C)c(C(=O)O)c2)cc1CNC(=O)c1ccc(Cl)cc1Cl [Example 21, 3-(3-{[(2,4-Dichlorobenzoyl)amino]methyl}-4-methoxyphenyl)-6-methylbenzoic Acid]	45	116	43
CCCOc1ccc(-c2cc(C(=O)O)ccc2Cl)cc1CNC(=O)c1ccc(C(F)(F)F)cc1F [Example 199, 3-(3-{[(4-Trifluoromethyl-2-fluorobenzoyl)amino]methyl}-4-propoxyphenyl)-4-chlorobenzoic Acid]	538	0.35	136
COc1ccc(-c2cccc(CC(=O)O)c2)cc1CNC(=O)c1ccc(C(F)(F)F)cc1F [Example 220, 3-(3-{[(4-Trifluoromethyl-2-fluorobenzoyl)amino]methyl}-4-methoxyphenyl)-3-phenylacetic Acid]	750	0.5	58
COc1ccc(-c2cccc(CC(=O)O)c2)cc1CCOc1ccc(Cl)cc1Cl [Example 263, 3-{3-[2-(2,4-Dichlorophenoxy)ethyl]-4-methoxyphenyl}phenylacetic Acid]	–	0.48	1160
CCOc1ccc(-c2cccc(CC(=O)O)c2)cc1CNC(=O)OCc1ccc(CC)cc1 [Example 302, {4′-Ethoxy-3′-[(4-ethylbenzyloxycarbonylamino)methyl]-biphenyl-3-yl}acetic Acid]	3	74	700
COc1ccc(-c2cccc(CC(=O)O)c2)cc1C#CCOc1ccc(C(F)(F)F)cc1 [Example 351, {4′-Methoxy-3′-[3-(4-trifluoromethylphenoxy)1-propynyl]biphenyl-3-yl}acetic Acid]	1820	160	1410
COc1ccc(-c2cccc(CC(=O)O)c2)cc1/C(C)=N/OCc1ccc(C(F)(F)F)cc1 [Example 361, {4′-Methoxy-3′-[1-(4-trifluoromethylbenzyloxyimino)ethyl]-biphenyl-3-yl}acetic Acid]	719	< 0.1	654
